Literature values in patent publication US20090136549A1, “TRANSDERMAL PATCH CONTAINING RASAGILINE FOR TREATMENT OR PROPHYLAXIS OF NERVOUS SYSTEM DISEASE AND ITS PREPARATION PROCESS” (Chongqing Pharmaceutical Research Institute Co., Ltd., priority 2006, published 2009).

Tests used:
patients with early PD = conditions: rasagiline 2 mg/d for 1 year
[1] = oral administration

SMILES: C#CCN[C@@H]1CCc2ccccc21 [rasagiline]
- mean UPDRS score lower than that of the patients administered with placebo in the last 6 months (patients with early PD): 2.29 units
- mean UPDRS score lower than that of the patients administered with rasagiline 1 mg/d for 1 year (patients with early PD): 1.82 units
- reduction of blood peak concentration by eating [1]: 60%
